Results on 29 molecules are retold here after article PMC12163085, “Targeting transcription factors through an IMiD independent zinc finger domain” (EMBO Molecular Medicine, 2025).

One data set relates to T1, SNU387-TgSALL4B.
T1 construct: SNU387 overexpressing SALL4B (FUW-Luc-mCh-puro)
Description: cells. Details: species or system SNU398 and SNU387 isogenic lines; CellTiter-Glo luminescence viability dose response in 384-well plates, nonlinear regression. The note with it: 72 h cell viability; read-out: EC50 / SNU387-TgSALL4BBHi. How it is done:
(§1) Empty vector, SALL4A, and SALL4B expressing isogenic cell lines were generated by transducing the SALL4 negative hepatocellular carcinoma SNU-387 cells with empty vector, SALL4A, or SALL4B FUW-Luc-mCh-puro lentiviral constructs. Cells were plated in 50 μl of RPMI culture media in 384-well white flat-bottom plates (Corning) and incubated at 37 °C in a humidified atmosphere of 5% CO2 overnight. Cell numbers per well were 1500 for SNU-398, and 750 for SNU-387 and SNU-387 isogenic lines. After overnight incubation, varying concentrations of compounds 1–80 were added to cells with multichannel electronic pipettes (Rainin). Cells were then incubated for 72 h at 37 °C in a humidified atmosphere of 5% CO2 before 10 μl of CellTiter-Glo reagent was added to the wells with the MultiFlo Microplate Dispenser (BioTek). Cells were incubated at room temperature for a minimum of 10 min, after which luminescence readings were recorded by an Infinite M1000 Microplate Reader (Tecan). Each data point was performed in n = 3 independent cell cultures. IC50 of compounds were determined using nonlinear regression fitting from Prism (GraphPad). Cell-based screening was next employed to evaluate the growth inhibitory activity of the test compounds against SALL4 expressing malignant cells. SNU398, a liver cancer cell line with high endogenous levels of SALL4, and SNU387, a liver cancer cell line with undetectable levels of SALL4, were used for comparison. Cells were incubated with the test compound at 1 μM for 72 h, after which cell viability was assessed. […] Next, we carried out dose escalation studies on all SH compounds to deduce their EC50 values on SNU387 and SNU398. In order to interrogate the effects of compounds targeting SALL4, we created isogenic cells by overexpressing SALL4A (SNU387-TgSALL4A) or SALL4B (SNU387-TgSALL4B) in SNU387 cells (Tan et al, [2019]) (Fig. 2B, and Dataset EV4). The EC50 of SH2, SH6, and SH7 in SALL4 high SNU398 cells were 0.4 μM, 0.5 μM, and 0.3 μM, respectively. In contrast, the EC50 values of the same compounds were more than 10 μM on SALL4 low SNU387 cells.

The next data set has as its system T2, SNU387-TgSALL4A.
T2 construct: SNU387 overexpressing SALL4A (FUW-Luc-mCh-puro)
The experiment in a line: cells. The note with it: 72 h cell viability; read-out: EC50 / SNU387-TgSALL4AAHi. Details: species or system SNU398 and SNU387 isogenic lines; CellTiter-Glo luminescence viability dose response in 384-well plates, nonlinear regression. The procedure:
as §1

Data set [1] has as its system T3, SNU387-Ev (SNU387 transduced with empty vector).
T3 construct: empty vector FUW-Luc-mCh-puro
Description: cells. Details: species or system SNU398 and SNU387 isogenic lines; CellTiter-Glo luminescence viability dose response in 384-well plates, nonlinear regression. Conditions: Homo sapiens, SNU-387; 72 h cell viability; read-out: EC50 / SNU387-EvLo. The procedure: as §1

Another data set has as its system SNU387. The experiment in a line: cells. Details: species or system SNU398 and SNU387 isogenic lines; CellTiter-Glo luminescence viability dose response in 384-well plates, nonlinear regression. The note with it: Homo sapiens, SNU-387; 72 h cell viability; read-out: EC50 / SNU387Lo. The procedure:
as §1

Another data set relates to SNU398. The experiment in a line: cells. Details: species or system SNU387, SNU398 and SNU387 isogenic lines; CellTiter-Glo luminescence viability dose response in 384-well plates, nonlinear regression. Conditions: Homo sapiens, SNU-398; 72 h cell viability; read-out: EC50 / SNU398Hi. The procedure:
as §1

Another data set has as its system T4, SNU387-TgSALL4AAHi.
T4 construct: SNU-387 overexpressing SALL4A
The experiment in a line: cells. Details: species or system SNU-387, SNU-398 and SNU-387 isogenic lines; CellTiter-Glo luminescence cell viability, dose-response EC50. The note with it: 72 h. The procedure: as §1

A further data set relates to T5, SNU387Lo.
T5 construct: SNU-387 hepatocellular carcinoma, SALL4 low
Description: cells. Conditions: 72 h. Details: species or system SNU-387, SNU-398 and SNU-387 isogenic lines; CellTiter-Glo luminescence cell viability, dose-response EC50. The procedure:
as §1

The subject of the next data set is T6, SNU398Hi.
T6 construct: SNU-398 hepatocellular carcinoma, SALL4 high
The experiment in a line: cells. Conditions: 72 h. Details: species or system SNU-387, SNU-398 and SNU-387 isogenic lines; CellTiter-Glo luminescence cell viability, dose-response EC50. How it is done:
as §1

Another data set relates to T7, SNU387-EvLo.
T7 construct: SNU-387 empty vector control
Description: cells. Conditions: 72 h. Details: species or system SNU-387, SNU-398 and SNU-387 isogenic lines; CellTiter-Glo luminescence cell viability, dose-response EC50. How it is done:
as §1

A further data set relates to T8, SNU387-TgSALL4BBHi.
T8 construct: SNU-387 overexpressing SALL4B
The experiment in a line: cells. Details: species or system SNU-387, SNU-398 and SNU-387 isogenic lines; CellTiter-Glo luminescence cell viability, dose-response EC50. The note with it: 72 h. How it is done: as §1

In a further data set the target is T9, hERG potassium channel (Homo sapiens, UniProt Q12809).
T9 construct: gene KCNH2
The experiment in a line: hERG channel block concentration-response. The data set is classed as cell-based. Background: Block of hERG is tested as a sign of cardiac risk.

Another data set deals with T10, CRBN (cereblon) (Homo sapiens, UniProt Q96SW2).
T10 construct: endogenous CRBN in SNU398 cells
The experiment in a line: in-cell CETSA only ([…] SH6). The data set is classed as cell-based.

For a further data set, the target named is T11, CUL4A (Homo sapiens, UniProt Q13619).
T11 construct: Recombinant CUL4A (Creative Biomart CUL4A-690H)
The experiment in a line: SPR (Biacore, immobilized CUL4A); supported by in-cell CETSA. The data set is classed as binding. In general terms: In SPR one partner is held on a chip, and binding of the other changes the refractive index at the surface.

A further data set concerns the target T12, SALL4 ZFC4 (human, UniProt Q9UJQ4).
T12 sequence: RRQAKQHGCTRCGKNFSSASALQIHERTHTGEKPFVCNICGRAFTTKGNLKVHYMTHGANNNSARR
The experiment in a line: X-ray crystallography (2.1 A); Zn2+; 500 uM protein with 750 uM DNA; Crystallization: protein in 20 mM HEPES pH 7.5, 200 mM NaCl, 0.5 mM TCEP, 1 mM DTT, 10 uM ZnCl2; mixed with equal volume of 30% PEG3350, 0.04 M NH4SO4, BisTris. The note with it: protein: recombinant; tags: N-terminal GST, removed with thrombin (pGEX4T1); chain copies: 2; blunt.

Where only a bound is given, the exact number is not on record here.

T11 sequence (Q13619 whole entry): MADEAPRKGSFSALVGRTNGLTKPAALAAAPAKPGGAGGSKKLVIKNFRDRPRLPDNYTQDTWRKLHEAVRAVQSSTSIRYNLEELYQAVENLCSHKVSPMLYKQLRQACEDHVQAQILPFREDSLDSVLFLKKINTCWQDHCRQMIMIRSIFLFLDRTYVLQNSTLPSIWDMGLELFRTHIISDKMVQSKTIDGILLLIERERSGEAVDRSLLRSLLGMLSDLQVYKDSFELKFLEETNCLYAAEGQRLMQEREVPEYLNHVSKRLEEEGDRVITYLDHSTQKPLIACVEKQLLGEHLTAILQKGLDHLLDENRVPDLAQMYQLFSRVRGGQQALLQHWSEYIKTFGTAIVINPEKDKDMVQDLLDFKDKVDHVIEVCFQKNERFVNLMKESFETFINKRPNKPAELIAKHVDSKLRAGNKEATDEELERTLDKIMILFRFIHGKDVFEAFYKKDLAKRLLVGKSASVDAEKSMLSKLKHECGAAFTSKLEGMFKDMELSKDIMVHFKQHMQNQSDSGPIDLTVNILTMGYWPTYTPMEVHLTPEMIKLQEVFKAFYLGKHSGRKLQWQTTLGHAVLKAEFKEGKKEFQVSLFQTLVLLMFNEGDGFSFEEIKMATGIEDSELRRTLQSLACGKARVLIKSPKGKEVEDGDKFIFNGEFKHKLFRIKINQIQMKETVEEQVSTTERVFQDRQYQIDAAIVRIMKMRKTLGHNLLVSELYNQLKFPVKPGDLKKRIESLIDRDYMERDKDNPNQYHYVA
T10 sequence (Q96SW2 whole entry): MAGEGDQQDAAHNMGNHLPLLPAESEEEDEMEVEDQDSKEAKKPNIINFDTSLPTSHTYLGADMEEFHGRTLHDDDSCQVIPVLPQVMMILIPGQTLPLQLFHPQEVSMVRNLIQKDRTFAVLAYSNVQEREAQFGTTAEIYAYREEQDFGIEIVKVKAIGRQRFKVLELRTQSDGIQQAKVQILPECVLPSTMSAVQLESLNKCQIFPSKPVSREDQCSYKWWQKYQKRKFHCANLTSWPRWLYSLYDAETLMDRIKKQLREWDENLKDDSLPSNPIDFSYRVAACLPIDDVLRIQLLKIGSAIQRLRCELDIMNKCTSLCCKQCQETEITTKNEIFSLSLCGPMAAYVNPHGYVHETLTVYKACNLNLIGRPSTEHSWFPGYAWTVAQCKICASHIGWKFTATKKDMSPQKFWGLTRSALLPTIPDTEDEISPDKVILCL
T9 sequence (Q12809 whole entry): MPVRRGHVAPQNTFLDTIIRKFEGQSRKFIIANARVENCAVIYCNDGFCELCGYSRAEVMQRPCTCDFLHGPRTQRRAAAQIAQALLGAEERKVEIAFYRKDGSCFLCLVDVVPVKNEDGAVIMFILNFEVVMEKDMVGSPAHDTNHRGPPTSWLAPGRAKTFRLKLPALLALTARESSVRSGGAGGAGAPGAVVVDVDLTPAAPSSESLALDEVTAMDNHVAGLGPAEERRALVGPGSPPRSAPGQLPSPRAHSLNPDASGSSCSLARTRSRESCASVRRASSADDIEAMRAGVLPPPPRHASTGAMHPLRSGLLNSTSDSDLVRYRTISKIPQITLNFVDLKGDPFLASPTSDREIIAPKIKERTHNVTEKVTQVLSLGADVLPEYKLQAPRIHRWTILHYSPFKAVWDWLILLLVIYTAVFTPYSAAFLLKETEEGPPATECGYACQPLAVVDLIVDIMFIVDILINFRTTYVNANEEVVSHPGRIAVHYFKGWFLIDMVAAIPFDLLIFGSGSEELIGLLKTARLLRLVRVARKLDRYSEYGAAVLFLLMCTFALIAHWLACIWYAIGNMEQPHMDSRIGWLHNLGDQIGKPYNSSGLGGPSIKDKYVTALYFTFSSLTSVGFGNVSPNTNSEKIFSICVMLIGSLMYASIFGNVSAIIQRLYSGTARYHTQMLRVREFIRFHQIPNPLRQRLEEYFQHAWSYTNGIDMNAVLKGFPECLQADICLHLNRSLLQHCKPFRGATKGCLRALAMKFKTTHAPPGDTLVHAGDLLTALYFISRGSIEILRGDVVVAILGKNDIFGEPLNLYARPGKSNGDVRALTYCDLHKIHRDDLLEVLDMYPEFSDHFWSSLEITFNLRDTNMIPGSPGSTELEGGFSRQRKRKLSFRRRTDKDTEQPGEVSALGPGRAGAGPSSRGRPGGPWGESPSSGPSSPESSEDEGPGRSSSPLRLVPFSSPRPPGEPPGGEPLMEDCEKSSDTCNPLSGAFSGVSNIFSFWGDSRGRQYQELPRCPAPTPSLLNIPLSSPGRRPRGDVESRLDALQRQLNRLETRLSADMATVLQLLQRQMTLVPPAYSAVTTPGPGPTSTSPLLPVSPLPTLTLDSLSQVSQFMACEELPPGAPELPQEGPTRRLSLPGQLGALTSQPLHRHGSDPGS

As to `COc1cc(Nc2ncccc2/C=C/C(=O)Nc2cc(Cl)c(Cl)cc2N)cc(OC)c1OC` [SH7], the EC50 in the data set on SNU387-TgSALL4B was 0.3 µM; in the data set on SNU387-TgSALL4A it was 1 µM; in data set [1], more than 10 µM; with SNU387 it was approximately 30 µM; with SNU398, 0.3 µM.
Take `Nc1ccc(F)cc1NC(=O)c1cccnc1Nc1ccc(F)cc1` [SH61]: the EC50 in the data set with SNU387-TgSALL4AAHi is more than 10 µM; in the data set on SNU387Lo it was more than 30 µM; with SNU398Hi, more than 30 µM; in the data set with SNU387-EvLo, more than 10 µM; in the data set on SNU387-TgSALL4BBHi, more than 10 µM.
What is called IC50 is the concentration needed to halve the response being measured. Low readings indicate inhibition by little substance, high ones a need for much substance. As a reminder, the Kd is a measure of binding affinity in units of concentration. Turning to `COc1cc(Nc2ncccc2/C=C/C(=O)Nc2ccc(Cl)cc2N)cc(OC)c1OC` [SH6, (2E)-N-(2-amino-4-chlorophenyl)-3-[2-(3,4,5-trimethoxyanilino)pyridin-3-yl] prop-2-enamide], on hERG potassium channel, half-maximal inhibition (IC50) was put at 22.2 µM. Besides, the “in-cell CETSA only (50 μM SH6)” value on CRBN (cereblon) was “higher thermal stability (less unfolding) of CUL4, CRBN, and SALL4 (Fig. 3F), implicating these proteins as binding partners of SH6”. Moreover, on CUL4A, the Kd was approximately 89 µM.
As to `Nc1cc(Cl)c(Cl)cc1NC(=O)/C=C/c1cccnc1Nc1ccc(C(F)(F)F)cc1` [SH31], the EC50 in the data set on SNU387 was approximately 14 µM; in the data set with SNU398 it was approximately 10 µM.
For `Nc1cc(Cl)c(Cl)cc1NC(=O)c1cccnc1Nc1ccc(Cl)cc1` [SH79] the same measures were more than 30 µM and approximately 20 µM.
For `COc1ccc(Nc2ncccc2/C=C/C(=O)NO)cc1` [SH16] the same measures were more than 30 µM and more than 30 µM.
Taken in the same sequence, the figures for `Nc1ccccc1NC(=O)c1cccnc1Nc1ccc(Cl)cc1` [SH73] were more than 30 µM and approximately 30 µM.
On to `O=C(/C=C/c1cccnc1Nc1ccc(Cl)cc1)NO` [SH40], for which the figures for the EC50 in the data set on SNU387 and with SNU398 were more than 30 µM and approximately 15 µM, respectively.
For the molecule `Nc1ccc(F)cc1NC(=O)/C=C/c1cccnc1Nc1ccc(F)cc1` [SH21], the EC50 with SNU387 is more than 30 µM; in the data set with SNU398 it was approximately 25 µM.
For `COc1ccc(N)c(NC(=O)/C=C/c2cccnc2Nc2ccc(Cl)cc2)c1` [SH34], the EC50 is approximately 5 µM with SNU387 and approximately 3 µM in the data set on SNU398.
Taken in the same sequence, the figures for `O=C(NO)c1cccnc1Nc1ccc(C(F)(F)F)cc1` [SH72] were more than 30 µM and approximately 25 µM.
For `Cc1cc(N)c(NC(=O)/C=C/c2cccnc2Nc2ccc(F)cc2)cc1C` [SH20] the same measures were more than 30 µM and approximately 12 µM.
For `Nc1ccc(F)cc1NC(=O)c1cccnc1Nc1ccc(Cl)cc1` [SH77], the values for the EC50 in the data set on SNU387 and in the data set with SNU398 were more than 30 µM and approximately 25 µM, respectively.
For `Cc1ccc(N)c(NC(=O)/C=C/c2cccnc2Nc2ccc(Cl)cc2)c1` [SH35] the same measures were approximately 20 µM and approximately 9 µM.
For `COc1cc(Nc2ncccc2C(=O)Nc2cc(Cl)c(Cl)cc2N)cc(OC)c1OC` [SH47] the same measures were more than 30 µM and approximately 18 µM.
Taken in the same sequence, the figures for `Nc1ccccc1NC(=O)c1cccnc1Nc1ccc(C(F)(F)F)cc1` [SH65] were more than 30 µM and approximately 25 µM.
With `Cc1ccc(N)c(NC(=O)c2cccnc2Nc2ccc(F)cc2)c1` [SH59], the EC50 in the data set with SNU387 and with SNU398 was more than 30 µM throughout.
Take `COc1ccc(Nc2ncccc2C(=O)NO)cc1` [SH56]: the EC50 in the data set on SNU387 and in the data set on SNU398 was more than 30 µM each time.
For the molecule `O=C(NO)c1cccnc1Nc1ccc(Cl)cc1` [SH80], the EC50 in the data set on SNU387 and in the data set on SNU398 was more than 30 µM each time.
With `Nc1ccc(Cl)cc1NC(=O)/C=C/c1cccnc1Nc1ccc(C(F)(F)F)cc1` [SH30], the EC50 with SNU387 was approximately 30 µM; in the data set with SNU398, approximately 12 µM.
For `COc1cc(Nc2ncccc2C(=O)Nc2ccccc2N)cc(OC)c1OC` [SH41] the same measures were more than 30 µM and more than 30 µM.
Taken in the same sequence, the figures for `Cc1cc(N)c(NC(=O)c2cccnc2Nc2ccc(F)cc2)cc1C` [SH60] were more than 30 µM and more than 30 µM.
On to `COc1ccc(N)c(NC(=O)/C=C/c2cccnc2Nc2cc(OC)c(OC)c(OC)c2)c1` [SH2], for which the EC50 was 0.4 µM with SNU387-TgSALL4B; 1.3 µM in the data set on SNU387-TgSALL4A; more than 10 µM in data set [1]; more than 30 µM in the data set with SNU387; 0.4 µM in the data set on SNU398.
As to `COc1cc(Nc2ncccc2/C=C/C(=O)Nc2cc(C)c(C)cc2N)cc(OC)c1OC` [SH4], the EC50 was more than 30 µM with SNU387 and approximately 2 µM with SNU398.
For `Cc1cc(N)c(NC(=O)c2cccnc2Nc2ccc(C(F)(F)F)cc2)cc1C` [SH68] the same measures were more than 30 µM and more than 30 µM.
For the molecule `Nc1ccc(Cl)cc1NC(=O)/C=C/c1cccnc1Nc1ccc(F)cc1` [SH22], the EC50 in the data set on SNU387 is approximately 30 µM; with SNU398 it was approximately 15 µM.
Taken in the same sequence, the figures for `Nc1ccc(Cl)cc1NC(=O)c1cccnc1Nc1ccc(F)cc1` [SH62] were more than 30 µM and approximately 25 µM.
For `COc1cc(Nc2ncccc2/C=C/C(=O)Nc2cc(C)ccc2N)cc(OC)c1OC` [SH3] the same measures were more than 30 µM and approximately 1.5 µM.

B1: 12-mer TATTA SALL4 motif duplex (dsDNA)
DNA 1: CGAAATATTAGC
DNA 2: GCTAATATTTCG
Consider B1, for which the binding result with SALL4 ZFC4 was “binds”.
